Broadly, the Tmax is the time at which the peak concentration occurs. By Cmax is commonly meant the peak of the concentration-time curve. Usually NOAEL stands for the highest dose or exposure tested at which no adverse effect was seen. Usually half-life stands for how long it takes for the measured level to halve. High values mean slow decline, low ones rapid decline.

The subject of series [1] is thyroid hormone receptors. The arrangement: method as in Nagayoshi et al. [2015]. The conditions noted are these: ref Nagayoshi et al. [2015]; cited from earlier work.
Series [2] has as its system rats. Conditions: ref Ema et al. [2006]; cited from earlier work.
Details of series [3]: method as in Cantwell et al. [2015]. The conditions noted are these: ref Cantwell et al. [2015]; cited from earlier work.
The test system of series [4] is rats. The conditions noted are these: especially male, ref Ema et al. [2008]; cited from earlier work.
The conditions of series [5]: in vitro; ref Fischer et al. [2020]; cited from earlier work.
Series [6] in a line: clinical. The conditions noted are these: human, plasma, po, 0.3 mg/kg.
Protocol: (§1) For the determination of potential background exposure, one blood and one urine sample of each participant were collected prior to the oral administration of UV-327. 14–29 mg of UV-327 were weighed directly onto a small piece of bread with butter, which was then consumed by the volunteers. Samples of urine and blood were then collected up to 72 h post-application. The participants collected all urine voids in separate containers. The sampling times and volumes of each sample were recorded. The urine samples were aliquoted and stored at − 50 °C until analysis. 9 ml of blood were drawn from peripheral veins at 2 h, 4 h, 6 h, 8 h, 10 h, 24 h, 34 h, 48 h, and 72 h after exposure and collected in EDTA-Monovettes®. […] Both blood and plasma samples were stored at − 50 °C until analysis.
(§2) Stock solutions of each analyte and internal standard (200 mg/l) were prepared in acetone. For calibration, an analyte spiking solution was prepared in a mixture of acetonitrile and aqueous 0.9% NaCl solution (v/v, 1:1), which contained 500 µg/l of each metabolite. For the determination of UV-327, two analyte spiking solutions were prepared, containing 2 mg/l or 40 mg/l of UV-327 in a mixture of acetonitrile and 0.9% NaCl solution (v/v, 1:1). The internal standard spiking solution contained 20 mg/l of D20-UV-327 and 1 mg/l each of D6-UV-327-4-mcx, D6-UV-327-4-mOH, D12-UV-327-4 + 6-diOH, and D6-UV-327-4-mOH-6-mcx. For derivatization, a solution containing 5% (v/v) TSIM in toluene was freshly prepared for each analytical run. Calibration standards were prepared by spiking human plasma with various volumes of the analyte spiking solutions. An eight-point calibration curve in the range of 0.5–25 µg/l was applied for the determination of the metabolites, except for UV-327-4-mOH-6-mcx, for which the calibration range was set to 2–100 µg/l due to higher limits of detection and quantitation. For the determination of UV-327, a nine-point calibration curve in the range of 10–2000 µg/l was applied. A reagent blank sample, containing water instead of plasma, was included in each analytical run. […]
The nature of series [7]: clinical. Conditions: both, human, whole blood, po, 0.3 mg/kg.
Protocol: (§3) The administered dose of UV-327 was calculated with respect to an adequate distance from the no observed adverse effect level (NOAEL) determined in toxicological studies. […] As a result, 0.3 mg of UV-327/kg body weight was administered to each participant.
(§4) For the determination of potential background exposure, one blood and one urine sample of each participant were collected prior to the oral administration of UV-327. 14–29 mg of UV-327 were weighed directly onto a small piece of bread with butter, which was then consumed by the volunteers. Samples of urine and blood were then collected up to 72 h post-application. The participants collected all urine voids in separate containers. The sampling times and volumes of each sample were recorded. The urine samples were aliquoted and stored at − 50 °C until analysis. 9 ml of blood were drawn from peripheral veins at 2 h, 4 h, 6 h, 8 h, 10 h, 24 h, 34 h, 48 h, and 72 h after exposure and collected in EDTA-Monovettes®. Additional blood samples were collected from one subject 14 h, 28 h, and 58 h after exposure. This study participant donated two blood samples at each point in time; one blood sample was centrifuged to obtain plasma samples. Both blood and plasma samples were stored at − 50 °C until analysis.
(§5) Whole blood samples were prepared, processed, and analyzed according to a previously published method (Fischer and Göen [2022]). Proteins and cellular components were precipitated by the addition of acetonitrile. After centrifugation, the supernatants were diluted with water and ammonium acetate buffer. For analyte extraction, chloroform was added. The extracts were evaporated to dryness, followed by the addition of toluene and derivatization with both BSA/TCMS and TSIM. LODs ranged from 0.02 to 0.36 µg/l. […] Mean relative recovery rates ranged from 91% to 118%.
(§6) The blood samples of one study participant were additionally processed with the addition of β-glucuronidase/arylsulfatase from H. pomatia and incubation at 37 °C for 16 h to examine potential conjugation of UV-327 and its metabolites to glucuronide/sulfate.
(§7) A TRACE 1310 gas-chromatographic system equipped with a TriPlus RSH autosampler and a split/splitless injector was used for the analysis of the urine, blood, and plasma samples. The gas-chromatographic system was coupled to a TSQ 9000 triple–quadrupole mass spectrometer equipped with an advanced electron ionization (AEI) source (Thermo Fisher Scientific Inc., Waltham, USA). Chromatographic separation was performed on a (5% phenyl)-methylpolysiloxane low-bleed capillary column (HP-5msUI, 60 m × 250 µm × 0.25 µm, Agilent Technologies, Inc., Santa Clara, USA) at a constant flow rate of 1 ml/min using helium as a carrier gas. Total analysis time was 44 min. The GC–MS/MS equipment and parameter-specific settings were used as described in earlier publications for the analysis of urine (Fischer and Göen [2021]) and blood samples (Fischer and Göen [2022]). Plasma samples were analyzed using the same parameter-specific settings as for the analysis of blood samples.
(§8) Mean concentration–time curves in blood were obtained by plotting the mean blood levels against time. The elimination half-lives (t1/2) were calculated as described above. […] For this purpose, UV-327 equivalents (as percentages) were calculated as follows: ∑i=0ncmax/M×MUV-327×100
The nature of series [8]: UV-327 and metabolites in whole blood of volunteers after single oral administration of UV-327. Conditions: for share of the total amount of all analytes at the time point of maximum concentration: blood, UV-327 equivalents at cmax; for time after which mean blood level was below LOD / cmax (maximum blood level): whole blood; for time after which mean blood level was below LOD: single oral 0.3 mg/kg UV-327; for cmax (maximum blood level): single oral 0.3 mg/kg body weight UV-327, n = 3, mean ± SD.
Protocol: as §3, §4, §5, §6, §7, §8

Series [9] has as its system human serum albumin. Also on record: method as in Zhuang et al. [2016]. The conditions noted are these: ref Zhuang et al. [2016]; cited from earlier work.
Series [10] relates to beagle dogs. Conditions: 90-day feeding study, ref CIBA AG [1970]; cited from earlier work.
For series [11], the system named is rats. The conditions noted are these: ref Ema et al. [2008]; cited from earlier work.
Series [12] relates to human estrogen receptor. The arrangement: method as in Fent et al. [2014]; Sakuragi et al. [2021]. The conditions noted are these: ref Fent et al. [2014]; Sakuragi et al. [2021]; cited from earlier work.
The subject of series [13] is human androgen receptor. The arrangement: method as in Fent et al. [2014]; Sakuragi et al. [2021]. The conditions noted are these: ref Fent et al. [2014]; Sakuragi et al. [2021]; cited from earlier work.
Series [14] is described as follows: clinical. The conditions noted are these: for relative urinary share of the amount recovered within 72 h: % of the dose recovered in urine within 72 h; for form present in urine (conjugated/unconjugated): urine processed with and without enzymatic hydrolysis; for t1/2 (elimination half-life, renal excretion): from mean excretion curves. On the procedure: Enzymatic hydrolysis was performed at 37 °C for 16 h using β-glucuronidase/arylsulfatase from H. pomatia. The analytes and internal standards were extracted by dispersive liquid–liquid microextraction (DLLME) with isopropanol and chloroform. […] The urinary creatinine content was determined photometrically by the Jaffé’s method (Larsen [1972]).
Renal excretion rates (RE, in µg/h) of each analyte at a certain point in time were calculated by the following equation: RE=ci×vi/ti-ti-1
where ci (in µg/l) is the concentration of UV-327 or its metabolites in the urine sample i, vi (in l) is the volume of the respective urine sample, ti (in h) is the elapsed time value of the sampling, and ti−1 (in h) is the elapsed time value of the previous sampling.
Renal excretion kinetics of UV-327 and its metabolites were plotted as temporal progressions of the renal excretion rates RE at the midpoint of the respective sampling periods (ti,m in h), which were calculated as follows: ti,m=ti-1+ti-ti-1/2
Excretion curves were prepared for each study participant and each analyte by plotting the current excretion rates against the average time of the sampling period. Mean excretion curves were then obtained by averaging the closest sampling time points and the corresponding renal excretion rates for all study participants (mean ± standard deviation (SD)). The slopes (kel, elimination rate constant) of the ln-transformed mean excretion curves were used to calculate the elimination half-lives (t1/2) as follows: t1/2=ln(2)/kel
By summing the molar excreted amounts of UV-327 and its metabolites, the cumulative excreted amount of each analyte (in µmol) was calculated for each study participant: ∑i=0nci×vi/M
Furthermore, urinary excretion factors (FUE) as UV-327 dose equivalents (as percentages) were calculated to express the total excretion of UV-327 and its metabolites in urine after 24 h, 48 h, and 72 h: FUE=CEi/MD×100
CEi is the amount of the respective analyte excreted after 24 h, 48 h, and 72 h (in µmol) and MD is the ingested amount of UV-327 (in µmol).
The shares of conjugation of UV-327 and its metabolites were determined by correlation of the urinary excretion rates obtained with and without the performance of enzymatic hydrolysis. The slope of the linear fit describes the percentage of the unconjugated form of the respective analyte.

Series [15] can be described thus: UV-327 and metabolites in plasma of one volunteer after single oral administration of UV-327. Conditions: n = 1; AUC plasma / AUC blood per method.
Protocol: as §1, §2
For series [16] the following is noted: in vivo, po; cited from earlier work.
Details of series [17]: method as in Sommer et al. [2020]. The conditions noted are these: oral administration, ref Sommer et al. [2020]; cited from earlier work.
Setting [18] is: both, human, in vivo, po, 0.3 mg/kg.
The mark [19] stands for this setting: urine of one participant, with vs without enzymatic hydrolysis.
The mark [20] stands for this setting: urine up to 72 h, n = 3, mean ± SD.

Turning to `CC(C)(C)c1cc(-n2nc3ccc(Cl)cc3n2)c(O)c(C(C)(C)C)c1` [UV-327, 2-(5-chloro-benzotriazol-2-yl)-4,6-di-(tert-butyl)phenol], the “activity against thyroid hormone receptors” value in [1] was “no activity”. For the same molecule, the “oral LD50” value in series [2] is reported as over 5000 mg/kg body weight. Moreover, the “Log Kow” value in [3] is listed as 6.75. The “liver findings after repeated oral administration” value in series [4] was “increased liver weights, histopathological changes in hepatic tissue, and alterations in liver-specific blood parameters”. In series [5], the “extent of metabolism in human liver microsomes” value is “only moderately metabolized”. For the same molecule, in [6], the Tmax worked out at 6 h. In [7], the Cmax was found to be 632 ± 114 ng/mL, the Tmax was 6 h, the concentration at 24 h came to 103 ± 24 ng/mL and the concentration at 72 h is 27 ± 5 ng/mL. In addition, the “conjugation in blood (with vs without enzymatic hydrolysis)” value in [8] (blood of one participant, β-glucuronidase/arylsulfatase) is “not present as conjugates in blood”. Moreover, the “share of the total amount of all analytes at the time point of maximum concentration” value (“share … of maximum concentration” for short) in series [8] turned out to be 99.9%. In series [9], the “binding to human serum albumin” value was “found to bind to human serum albumin by forming hydrogen bonds”. Besides, the NOAEL in series [10] was 30 mg/kg/day. Besides, the reproductive toxicity entry in series [11] is recorded as “did not cause reproductive”. In [12], the “activity against human estrogen receptor” value is on record as “no activity”. In addition, the “activity against human androgen receptor” value in series [13] is given as “no activity”. Further, in series [14] (both, human, in vivo), the Cumulative excreted amount came to 0.0016 ± 0.0007 µmol, the “FUE after 24 h (urinary excretion factor)” value (“FUE after 24 h” for short) turned out to be 0.0015 ± 0.0004%, the “FUE after 48 h (urinary excretion factor)” value (“FUE after 48 h” for short) is 0.0023 ± 0.0007% and the “FUE after 72 h (urinary excretion factor)” value (“FUE after 72 h” for short) came to 0.0026 ± 0.0009%. Besides, in series [14] (both, human, in vivo), the half-life is 18.2 h; the “share of the total 72 h urinary amount (UV-327 and its metabolites) excreted within 24 h” value is 61%; the “share of the total 72 h urinary amount (UV-327 and its metabolites) excreted within 48 h” value stood at 88%. In [14] (setting [18]), the “REmax (maximum renal excretion rate)” value is reported as 0.026 ± 0.007 µg/h and the Tmax is 13.5 ± 0.05 h. Further, in series [14] (human, in vivo), the Share of conjugation stood at 16% and the “unconjugated form in urine” value came out at 84%. For the same molecule, in series [14] (urine), the “relative urinary share of the amount recovered within 72 h” value (“relative urinary share” for short) was 9.0%.

For the molecule “2-(5-chloro-benzotriazol-2-yl)-6-(1-hydroxy-2-methylpropyl)-4-(tert-butyl)phenol [UV-327-6-mOH]”, in [8], the “share … of maximum concentration” value amounted to 0.04%, the “time after which mean blood level was below LOD” value worked out at 48 h and the “cmax (maximum blood level)” value stood at 0.27 ± 0.10 µg/L. The “plasma to blood ratio” value in series [15] is recorded as 1.5 to 1.6. For the same molecule, in [14] (human, in vivo), the “FUE after 24 h” value is 0.0034 ± 0.0006%, the “FUE after 48 h” value is on record as 0.0046 ± 0.0010% and the “FUE after 72 h” value is recorded as 0.0049 ± 0.0013%. In series [14] (human, in vivo, po, 0.3 mg/kg), the “REmax (maximum renal excretion rate)” value came to 0.068 ± 0.06 µg/h and the “tmax (time point of maximum renal excretion rate)” value came out at 8.7 ± 0.21 h. Also, the Share of conjugation in [14] (setting [19]) came to 100%. The “form present in urine (conjugated/unconjugated)” value in [14] is on record as “only present in their conjugated forms”. The Cumulative excreted amount in series [14] (setting [20]) was 0.0030 ± 0.0011 µmol. Besides, the “relative urinary share” value in series [14] (urine) is reported as 17.2%. Further, the “t1/2 (elimination half-life, renal excretion)” value in series [14] (urine, n = 3) was found to be 13.9 h.

With “2-(5-chloro-benzotriazol-2-yl)-4-(1-hydroxy-2-methylpropyl)-6-(tert-butyl)phenol [UV-327-4-mOH]”, in series [8], the “share … of maximum concentration” value turned out to be 0.04%, the “time after which mean blood level was below LOD” value is on record as 72 h and the “cmax (maximum blood level)” value is 0.26 ± 0.10 µg/L. The “plasma to blood ratio” value in series [15] is recorded as 1.5 to 1.6. In series [14] (human, in vivo), the “FUE after 24 h” value worked out at 0.0016 ± 0.0004%, the “FUE after 48 h” value worked out at 0.0022 ± 0.0007% and the “FUE after 72 h” value is given as 0.0026 ± 0.0011%. In addition, in series [14] (human, in vivo, po, 0.3 mg/kg), the “REmax (maximum renal excretion rate)” value worked out at 0.032 ± 0.012 µg/h and the “tmax (time point of maximum renal excretion rate)” value is recorded as 13.5 ± 0.05 h. In [14] (setting [19]), this molecule showed a Share of conjugation of 100%. In addition, the “form present in urine (conjugated/unconjugated)” value in series [14] is “only present in their conjugated forms”. The molecule also registered a Cumulative excreted amount in series [14] (setting [20]) of 0.0016 ± 0.0009 µmol. The “relative urinary share” value in [14] (urine) turned out to be 9.2%. Also, the “t1/2 (elimination half-life, renal excretion)” value in [14] (urine, n = 3) is listed as 26.7 h.

Turning to “2-(5-chloro-benzotriazol-2-yl)-4,6-di-(1-hydroxy-2-methylpropyl)phenol [UV-327-4 + 6-diOH]”, the detection in blood result in [8] (blood samples up to 72 h post-exposure) was “not detected in blood”. Further, in series [14] (human, in vivo), the “FUE after 24 h” value was found to be 0.0104 ± 0.0022%, the “FUE after 48 h” value is recorded as 0.0156 ± 0.0027% and the “FUE after 72 h” value is recorded as 0.018%. For the same molecule, in series [14] (human, in vivo, po, 0.3 mg/kg), the “REmax (maximum renal excretion rate)” value stood at 0.214 ± 0.058 µg/h and the “tmax (time point of maximum renal excretion rate)” value is 10.6 ± 0.08 h. In [14] (setting [19]), the Share of conjugation worked out at 100%. Further, in series [14], the “form present in urine (conjugated/unconjugated)” value was “only present in their conjugated forms”. This molecule also yielded a Cumulative excreted amount in series [14] (setting [20]) of 0.0121 ± 0.0051 µmol. Also, the “FUE after 72 h” value in series [14] (urine, % of ingested UV-327 dose, 72 h, n = 3, mean ± SD) worked out at 0.0183 ± 0.0030%. Also, the “relative urinary share” value in series [14] (urine) is 64.5%. The “t1/2 (elimination half-life, renal excretion)” value in series [14] (urine, n = 3) stood at 33.0 h.

Consider `CCCOC(=O)c1ccc(O)cc1` [propyl paraben], for which, in series [16], the “time to maximum serum level” value is recorded as 1.4 ± 1.1 h.

As for `CN(C)CCc1ccc(O)cc1` [N,N-dimethyltyramine], in series [17], the “time to plasma peak level” value is 30 to 90 min.
